Assay results from the supplement of paper PMC10307832.

How the values were obtained:
Experiment in all cases: relative viability (nuclei count vs DMSO), 5 days (fraction); higher = more cells survive
Carboplatin + OSI-027 = compound: C1CC(C1)(C(=O)O)C(=O)O.[NH2-].[NH2-].[Pt+2] [Carboplatin] + COc1cccc2cc(-c3nc([C@H]4CC[C@H](C(=O)O)CC4)n4ncnc(N)c34)[nH]c12 [OSI-027] (partner 0.5 µM)
Method in brief: (§1)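 Relative viability divides the nuclei count in treated wells by that in vehicle wells. Lung cancer cell lines were seeded in 1536-well plates, dosed by pin tool the next day, and fixed and stained after 5 days in one step with final 0.05% Triton X-100, 1% formaldehyde and 1 ug/ml Hoechst. Dosing was a single drug or a fixed anchor-drug dose plus five library-drug doses (not always all listed) in √10 steps, and values are medians of duplicate plates imaged at 4×.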

Carboplatin + Decitabine = compound: C1CC(C1)(C(=O)O)C(=O)O.[NH2-].[NH2-].[Pt+2] [Carboplatin] + Nc1ncn([C@H]2C[C@H](O)[C@@H](CO)O2)c(=O)n1 [Decitabine] (partner 2 µM)
Method in brief: as §1

GSK126 + Navitoclax = compound: CC[C@H](C)N1C=C(C2=C(C=C(C=C21)C3=CN=C(C=C3)N4CCNCC4)C(=O)NCC5=C(C=C(NC5=O)C)C)C [GSK126] + CC1(C)CCC(c2ccc(Cl)cc2)=C(CN2CCN(c3ccc(C(=O)NS(=O)(=O)c4ccc(N[C@H](CCN5CCOCC5)CSc5ccccc5)c(S(=O)(=O)C(F)(F)F)c4)cc3)CC2)C1 [Navitoclax] (partner 0.5 µM)
Method in brief: as §1

GSK126 + AZD7762 = compound: CC[C@H](C)N1C=C(C2=C(C=C(C=C21)C3=CN=C(C=C3)N4CCNCC4)C(=O)NCC5=C(C=C(NC5=O)C)C)C [GSK126] + NC(=O)Nc1cc(-c2cccc(F)c2)sc1C(=O)N[C@H]1CCCNC1 [AZD7762] (partner 0.2 µM)
Method in brief: as §1

| Cell Line | relative viability (Carboplatin + OSI-027; first compound 0.08 µM) | relative viability (Carboplatin + OSI-027; first compound 0.253 µM) | relative viability (Carboplatin + OSI-027; first compound 0.8 µM) | relative viability (Carboplatin + OSI-027; first compound 2.53 µM) | relative viability (Carboplatin + OSI-027; first compound 8 µM) | relative viability (Carboplatin + Decitabine; first compound 0.08 µM) | relative viability (Carboplatin + Decitabine; first compound 0.253 µM) | relative viability (Carboplatin + Decitabine; first compound 0.8 µM) | relative viability (Carboplatin + Decitabine; first compound 2.53 µM) | relative viability (Carboplatin + Decitabine; first compound 8 µM) | relative viability (GSK126 + Navitoclax; first compound 0.08 µM) | relative viability (GSK126 + Navitoclax; first compound 0.253 µM) | relative viability (GSK126 + Navitoclax; first compound 0.8 µM) | relative viability (GSK126 + Navitoclax; first compound 2.53 µM) | relative viability (GSK126 + Navitoclax; first compound 8 µM) | relative viability (GSK126 + AZD7762; first compound 0.08 µM) | relative viability (GSK126 + AZD7762; first compound 0.253 µM) | relative viability (GSK126 + AZD7762; first compound 0.8 µM) | relative viability (GSK126 + AZD7762; first compound 2.53 µM) | relative viability (GSK126 + AZD7762; first compound 8 µM) |
| --- | --- | --- | --- | --- | --- | --- | --- | --- | --- | --- | --- | --- | --- | --- | --- | --- | --- | --- | --- | --- |
| NCI-H1437 | 0.935 | 0.822 | 0.83 | 0.749 | 0.488 | 0.508 | 0.556 | 0.529 | 0.508 | 0.464 | 1.14 | 1.11 | 1.04 | 1.03 | 1.03 | 1.19 | 1.06 | 1.05 | 1.1 | 0.966 |
| EMC-BAC-2 | 0.423 | 0.372 | 0.364 | 0.374 | 0.375 | 1.01 | 0.944 | 0.999 | 0.922 | 0.716 | 1.09 | 1.18 | 1.14 | 1.18 | 1.23 | 1.05 | 1.1 | 1.1 | 1.09 | 1.04 |
| NCI-H520 | 0.245 | 0.237 | 0.317 | 0.289 | 0.253 | 0.551 | 0.545 | 0.449 | 0.457 | 0.438 | 1.24 | 1.02 | 1.03 | 1.14 | 1.34 |  |  |  |  |  |
| NCI-H1993 | 0.463 | 0.556 | 0.566 | 0.51 | 0.498 | 0.64 | 0.661 | 0.559 | 0.559 | 0.473 | 0.981 | 0.931 | 0.754 | 1.06 | 0.892 | 0.836 | 0.754 | 0.702 | 0.9 | 0.795 |
| HCC-827 | 0.774 | 0.851 | 0.783 | 0.732 | 0.655 | 0.354 | 0.321 | 0.248 | 0.19 | 0.304 | 1.07 | 1.03 | 0.987 | 0.967 | 0.95 | 0.214 | 0.191 | 0.24 | 0.232 | 0.196 |
| NCI-H2087 | 0.656 | 0.56 | 0.536 | 0.508 | 0.41 | 0.242 | 0.28 | 0.307 | 0.227 | 0.237 | 0.992 | 0.917 | 1.14 | 1.02 | 1.14 | 1.52 | 1.31 | 1.18 | 1.41 | 1.43 |
| HARA | 0.619 | 0.644 | 0.476 | 0.462 | 0.385 | 0.681 | 0.439 | 0.549 | 0.448 | 0.469 | 1.18 | 1.11 | 1.1 | 1.15 | 1.14 | 0.379 | 0.397 | 0.4 | 0.266 | 0.203 |
| NCI-H2126 | 0.812 | 0.654 | 0.677 | 0.635 | 0.595 | 0.607 | 0.573 | 0.544 | 0.59 | 0.51 | 0.915 | 0.919 | 0.812 | 0.852 | 0.934 | 1.13 | 0.988 | 0.974 | 0.945 | 1.06 |
| LCLC-103H | 0.456 | 0.544 | 0.5 | 0.468 | 0.482 | 0.801 | 0.735 | 0.747 | 0.719 | 0.735 |  |  |  |  |  | 0.847 | 0.86 | 0.786 | 0.778 | 0.843 |
| SK-LU-1 | 0.444 | 0.387 | 0.339 | 0.292 | 0.213 | 0.719 | 0.677 | 0.625 | 0.586 | 0.46 | 0.857 | 0.819 | 0.911 | 0.915 | 0.855 |  |  |  |  |  |
| EKVX | 0.739 | 0.736 |  | 0.674 | 0.683 | 0.4 | 0.331 | 0.389 | 0.307 | 0.283 | 0.984 | 0.95 | 0.902 | 0.97 | 0.853 | 0.648 | 0.747 | 0.753 | 0.787 | 0.672 |
| HCC-366 | 1.07 | 0.979 | 0.911 | 0.955 | 0.486 | 0.322 | 0.32 | 0.336 | 0.251 | 0.203 | 1.17 | 1.02 | 1.09 | 1.12 | 1.05 | 0.33 | 0.251 | 0.201 | 0.293 | 0.177 |
| NCI-H1650 | 0.736 | 0.593 | 0.653 | 0.574 | 0.341 | 0.426 | 0.498 | 0.425 | 0.365 | 0.308 | 1.33 | 1.19 | 1.1 | 1.12 | 1.06 |  |  |  |  |  |
| COR-L23 | 0.894 | 0.903 | 0.618 | 0.466 | 0.231 | 0.402 | 0.514 | 0.412 | 0.361 | 0.21 | 1.17 | 1.01 | 0.834 | 0.95 | 0.968 |  |  |  |  |  |
| NCI-H647 | 0.724 | 0.637 | 0.692 | 0.57 | 0.575 | 0.45 | 0.305 | 0.286 | 0.292 | 0.306 | 1.14 | 1.05 | 1.07 | 1.11 | 1.15 | 0.465 | 0.495 | 0.497 | 0.507 | 0.371 |
| LXF-289 | 0.882 | 0.871 | 0.816 | 0.828 | 0.716 | 0.395 | 0.407 | 0.382 | 0.358 | 0.31 | 0.979 | 0.912 | 0.935 | 0.986 | 0.981 | 1.16 | 1.11 | 0.956 | 1.1 | 1.09 |
| NCI-H1703 |  |  |  |  |  |  |  |  |  |  | 1.49 | 0.942 | 1.02 | 0.898 | 0.748 | 0.115 | 0.115 | 0.133 | 0.118 | 0.137 |
